Calls of active or inactive are those of the source. The calls are words filed in the database; no cut-off is given here.
Tests used:
[1] = target: T1, Protein cereblon/Non-receptor tyrosine-protein kinase TYK2 (Homo sapiens, UniProt P29597+Q96SW2); experiment: PROTAC activity at CRBN/TYK2 in human HaCaT cells assessed as induction of degradation of TYK2 measured after 10 hrs by Western blot analysis; type: cell-based; details: dose 1-100 nM
[2] = target: T1, Protein cereblon/Non-receptor tyrosine-protein kinase TYK2; experiment: PROTAC activity at CRBN/TYK2 in human Jurkat cells assessed as induction of degradation of TYK2 at 10 nM preincubated with bortezomib for 2 hrs followed by compound addition and measured after 10 hrs by Western blot analysis; type: cell-based
[3] = Half life in male ICR mouse at 5 mg/kg, ip measured up to 24 hrs by LC-MS/MS analysis; type: ADME, organism-based; details: in vivo
[4] = AUC (0 to infinity) in male ICR mouse at 5 mg/kg, ip measured up to 24 hrs by LC-MS/MS analysis; type: ADME, organism-based; details: in vivo
[5] = Metabolic stability in mouse liver microsomes assessed as intrinsic clearance measured up to 120 mins by LC-MS/MS analysis; type: ADME, Microsome; details: read-out: CLH
[6] = Apparent permeability of the compound in human Caco-2 cells at 10 uM measured up to 120 min by LC-MS/MS analysis; type: ADME, cell-based
[7] = target: T1, Protein cereblon/Non-receptor tyrosine-protein kinase TYK2; experiment: PROTAC activity at CRBN/TYK2 in human Jurkat cells assessed as induction of degradation of TYK2 at 10 nM preincubated with deucravacitinib for 2 hrs followed by compound addition and measured after 10 hrs by Western blot analysis; type: cell-based
[8] = species: Mus musculus; experiment: Anti-inflammatory activity in imiquimod-induced female BALB/c mouse psoriasis model assessed as reduction in IL-23 expression in skin by ELISA method; type: functional, organism-based
[9] = species: Mus musculus; experiment: Anti-inflammatory activity in imiquimod-induced female BALB/c mouse psoriasis model assessed as reduction in TYK2 protein expression by Immunohistochemical analysis; type: functional, organism-based
[10] = target: T1, Protein cereblon/Non-receptor tyrosine-protein kinase TYK2; experiment: PROTAC activity at CRBN/TYK2 in human Jurkat cells assessed as induction of degradation of TYK2 at 10 nM preincubated with MLN4924 for 2 hrs followed by compound addition and measured after 10 hrs by Western blot analysis; type: cell-based
[11] = tested on: Jurkat; experiment: Downregulation of JAK1 protein level in human Jurkat cells at 1 to 100 nM measured after 10 hrs by Western blot analysis; type: functional, cell-based; details: dose 1-100 nM
[12] = tested on: Mus musculus; experiment: Anti-inflammatory activity in imiquimod-induced female BALB/c mouse psoriasis model assessed as reduction in micro abscess at 5 mg/kg, ip administered daily topically for 6 days by H and E staining based analysis; type: functional, organism-based; details: time 6.0 day
[13] = target: Non-receptor tyrosine-protein kinase TYK2 (Homo sapiens, UniProt P29597); experiment: Binding affinity to TYK2 JH1 domain (unknown origin) by ADP-glo kinase assay
Sequence of Non-receptor tyrosine-protein kinase TYK2 (P29597 whole entry, the tested form may be a part): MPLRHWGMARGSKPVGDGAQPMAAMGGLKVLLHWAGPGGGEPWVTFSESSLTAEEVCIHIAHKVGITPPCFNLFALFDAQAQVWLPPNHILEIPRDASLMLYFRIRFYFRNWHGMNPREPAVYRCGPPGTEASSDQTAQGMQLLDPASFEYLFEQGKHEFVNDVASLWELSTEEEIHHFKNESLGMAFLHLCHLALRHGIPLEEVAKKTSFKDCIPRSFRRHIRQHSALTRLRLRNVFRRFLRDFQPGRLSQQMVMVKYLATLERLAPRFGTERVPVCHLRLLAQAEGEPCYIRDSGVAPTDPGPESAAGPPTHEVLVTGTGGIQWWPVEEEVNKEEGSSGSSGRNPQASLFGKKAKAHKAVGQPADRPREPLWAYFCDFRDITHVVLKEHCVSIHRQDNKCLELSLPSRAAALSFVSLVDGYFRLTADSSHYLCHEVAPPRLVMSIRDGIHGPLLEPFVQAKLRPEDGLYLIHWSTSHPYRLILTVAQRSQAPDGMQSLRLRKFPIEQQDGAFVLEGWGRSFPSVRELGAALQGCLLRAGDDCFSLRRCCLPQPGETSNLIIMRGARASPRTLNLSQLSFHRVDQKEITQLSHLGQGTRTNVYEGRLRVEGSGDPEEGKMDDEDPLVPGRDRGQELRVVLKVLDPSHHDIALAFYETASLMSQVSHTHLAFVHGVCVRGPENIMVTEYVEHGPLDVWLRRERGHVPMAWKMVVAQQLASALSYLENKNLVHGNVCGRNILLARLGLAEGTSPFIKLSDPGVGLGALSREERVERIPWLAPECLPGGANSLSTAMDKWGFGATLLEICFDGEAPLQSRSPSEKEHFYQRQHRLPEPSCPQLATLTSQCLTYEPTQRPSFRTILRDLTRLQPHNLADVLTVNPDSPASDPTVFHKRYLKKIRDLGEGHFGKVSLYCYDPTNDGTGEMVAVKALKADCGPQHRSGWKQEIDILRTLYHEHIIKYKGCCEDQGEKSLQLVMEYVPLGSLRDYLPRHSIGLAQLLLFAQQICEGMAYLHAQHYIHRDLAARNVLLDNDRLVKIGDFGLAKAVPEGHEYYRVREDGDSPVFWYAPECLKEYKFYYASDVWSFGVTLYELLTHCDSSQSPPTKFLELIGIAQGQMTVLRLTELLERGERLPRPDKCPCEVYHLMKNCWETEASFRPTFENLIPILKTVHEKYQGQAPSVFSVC

[14] = Tmax in male ICR mouse at 5 mg/kg, ip measured up to 24 hrs by LC-MS/MS analysis; type: ADME, organism-based; details: in vivo
[15] = target: T1, Protein cereblon/Non-receptor tyrosine-protein kinase TYK2; experiment: PROTAC activity at CRBN/TYK2 in human Jurkat cells assessed as induction of degradation of TYK2 at 10 nM preincubated with cycloheximide for 2 hrs followed by compound addition and measured after 10 hrs by Western blot analysis; type: cell-based
[16] = target: T1, Protein cereblon/Non-receptor tyrosine-protein kinase TYK2; experiment: PROTAC activity at CRBN/TYK2 in human Jurkat cells assessed as induction of degradation of TYK2 at 10 nM preincubated with thalidomide for 2 hrs followed by compound addition and measured after 10 hrs by Western blot analysis; type: cell-based
[17] = target: T1, Protein cereblon/Non-receptor tyrosine-protein kinase TYK2; experiment: PROTAC activity at CRBN/TYK2 in human Jurkat cells assessed as induction of degradation of TYK2 at 10 nM preincubated for 24 hrs followed by compound washout and followed by incubation in compound free medium by Western blot analysis; type: cell-based
[18] = tested on: Mus musculus; experiment: Anti-inflammatory activity in imiquimod-induced female BALB/c mouse psoriasis model assessed as alleviation of psoriasis pathology at 15 mg/kg, ip administered daily topically for 6 days; type: functional, organism-based; details: time 6.0 day
[19] = Inhibition of TYK2 dependent STAT3 phosphorylation in IL-12 stimulated human PBMC cells preincubated for 60 mins followed by IL-12 stimulation and measured after 60 mins by FACS assay; type: cell-based
[20] = tested on: Jurkat; experiment: Effect on JAK3 protein level in human Jurkat cells at 30 nM measured after 4 hrs by DIA-Based Proteomic analysis; type: functional, cell-based
[21] = tested on: Jurkat; experiment: Downregulation of JAK2 protein level in human Jurkat cells at 1 to 100 nM measured after 10 hrs by Western blot analysis; type: functional, cell-based; details: dose 1-100 nM
[22] = tested on: Mus musculus; experiment: Anti-inflammatory activity in imiquimod-induced female BALB/c mouse psoriasis model assessed as reduction in psoriasis area severity index at 5 mg/kg, ip administered daily topically for 6 days; type: functional, organism-based; details: time 6.0 day
[23] = species: Mus musculus; experiment: Anti-inflammatory activity in imiquimod-induced female BALB/c mouse psoriasis model assessed as reduction in IL-17 expression in serum by ELISA method; type: functional, organism-based
[24] = target: T2, Tyrosine-protein kinase JAK1 (Homo sapiens, UniProt P23458); experiment: Displacement of fluorophore-labeled probe from JAK1 JH2 domain (unknown origin) by HTRF assay
T2 sequence (P23458 whole entry, the tested form may be a part): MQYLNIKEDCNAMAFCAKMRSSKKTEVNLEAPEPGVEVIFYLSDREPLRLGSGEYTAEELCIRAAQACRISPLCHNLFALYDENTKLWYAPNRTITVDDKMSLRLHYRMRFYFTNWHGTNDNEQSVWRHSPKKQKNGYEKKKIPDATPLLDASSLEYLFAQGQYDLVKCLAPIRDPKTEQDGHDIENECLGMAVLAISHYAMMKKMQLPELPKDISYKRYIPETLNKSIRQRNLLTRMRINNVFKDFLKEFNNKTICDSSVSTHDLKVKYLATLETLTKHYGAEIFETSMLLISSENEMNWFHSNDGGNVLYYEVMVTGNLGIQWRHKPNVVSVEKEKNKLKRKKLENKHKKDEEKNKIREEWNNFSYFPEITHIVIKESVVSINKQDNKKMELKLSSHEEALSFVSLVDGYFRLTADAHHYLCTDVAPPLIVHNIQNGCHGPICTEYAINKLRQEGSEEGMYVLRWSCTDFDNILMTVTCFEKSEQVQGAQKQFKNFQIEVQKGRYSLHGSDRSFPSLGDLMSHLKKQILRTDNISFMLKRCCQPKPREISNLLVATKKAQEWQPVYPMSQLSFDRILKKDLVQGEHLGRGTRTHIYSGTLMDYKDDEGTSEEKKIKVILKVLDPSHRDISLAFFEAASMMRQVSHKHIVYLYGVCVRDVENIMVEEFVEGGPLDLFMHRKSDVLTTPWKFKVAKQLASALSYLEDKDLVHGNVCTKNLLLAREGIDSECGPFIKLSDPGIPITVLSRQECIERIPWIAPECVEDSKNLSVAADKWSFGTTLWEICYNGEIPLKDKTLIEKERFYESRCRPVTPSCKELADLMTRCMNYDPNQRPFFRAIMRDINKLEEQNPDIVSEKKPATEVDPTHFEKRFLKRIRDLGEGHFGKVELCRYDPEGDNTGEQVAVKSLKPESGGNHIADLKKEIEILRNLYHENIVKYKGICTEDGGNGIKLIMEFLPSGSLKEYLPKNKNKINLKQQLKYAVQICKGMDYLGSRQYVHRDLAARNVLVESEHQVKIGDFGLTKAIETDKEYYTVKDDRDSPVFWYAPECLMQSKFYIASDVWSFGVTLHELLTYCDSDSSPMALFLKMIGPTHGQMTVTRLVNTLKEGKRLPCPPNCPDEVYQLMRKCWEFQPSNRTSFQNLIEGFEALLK

[25] = species: Mus musculus; experiment: Anti-inflammatory activity in imiquimod-induced female BALB/c mouse psoriasis model assessed as reduction in INF-alpha expression in skin by ELISA method; type: functional, organism-based
[26] = target: T2, Tyrosine-protein kinase JAK1; experiment: Binding affinity to JAK1 (unknown origin) by ADP-glo kinase assay
[27] = target: T1, Protein cereblon/Non-receptor tyrosine-protein kinase TYK2; experiment: PROTAC activity at CRBN/TYK2 in human Jurkat cells assessed as induction of degradation of TYK2 at 100 nM measured after 10 hrs by Western blot analysis relative to control; type: cell-based

T1 sequence (P29597 whole entry, looked up): as the sequence (P29597 whole entry, the tested form may be a part) above
T1 sequence (Q96SW2 whole entry, looked up): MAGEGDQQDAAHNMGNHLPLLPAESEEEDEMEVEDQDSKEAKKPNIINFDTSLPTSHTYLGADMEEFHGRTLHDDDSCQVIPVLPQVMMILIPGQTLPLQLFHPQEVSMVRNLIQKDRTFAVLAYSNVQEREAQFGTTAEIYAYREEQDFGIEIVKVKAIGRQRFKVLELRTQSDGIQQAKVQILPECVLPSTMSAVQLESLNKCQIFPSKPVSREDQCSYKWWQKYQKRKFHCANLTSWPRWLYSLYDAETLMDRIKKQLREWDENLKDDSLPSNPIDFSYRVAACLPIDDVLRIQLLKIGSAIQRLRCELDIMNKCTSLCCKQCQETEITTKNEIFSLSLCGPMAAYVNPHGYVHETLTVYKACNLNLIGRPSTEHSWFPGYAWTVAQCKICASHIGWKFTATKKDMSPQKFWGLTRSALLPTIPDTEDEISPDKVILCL

For `CNC(=O)c1cnc(Nc2ccc(C(=O)NC3CCC(Nc4ccc5c(c4)C(=O)N(C4CCC(=O)NC4=O)C5=O)CC3)cn2)cc1Nc1cccc(-c2ncc(F)cn2)c1OC` (configuration not stated), the Activity [1] was “Dose-dependent-effect”, the Activity [2] was “inactive” and the half-life [3] was 2.7 h. The AUC(0-inf) [4] was 4780 ng·h/mL, the CLint scaled [5] was 54 mL/min/kg and the Papp at 2 h, 10 µM [6] was < 0.1 ×10⁻⁶ cm/s. The Activity [7] was “inactive”, the Activity [8] was “Active” and the Activity [9] was “Active”. For the same compound, the Activity [10] was “inactive”, the Activity [11] was “Active” and the Activity [12] was “Active”. The IC50 [13] was > 10000 nM, the Tmax [14] was 0.4 h and the Activity [15] was “Active”. The Activity [16] was “inactive”, the Activity [17] was “inactive” and the Activity [18] was “Active”. For the same compound, the IC50 [19] was 8.6 nM, the Activity [20] was “inactive” and the Activity [21] was “Active”. For the same compound, the Activity [22] was “Active”, the Activity [23] was “Active” and the IC50 [24] was > 100 nM. For the same compound, the Activity [25] was “Active”, the IC50 [26] was > 10000 nM and the Activity [27] was 90%.
